Source: patent US20220119794A1, “CHEMICALLY PROGRAMMED NEUTROPHILS AND USES THEREOF” (VIRGINIA POLYTECHNIC INSTITUTE AND STATE UNIVERSITY, priority 2018, published 2022)

How the values were obtained:
[1] = test system: Bone marrow (BM) neutrophils; assay: In vitro neutrophil priming, surface phenotype by FACS; type: cell-based, C57 BL/6 mice; conditions: LPS 100 pg/ml with G-CSF, vs G-CSF alone
Protocol: (§1) In vitro neutrophil priming and FACS analysis. Bone marrow (BM) neutrophils were isolated from C57 BL/6 mice and cultured in complete RPMI medium containing 10% fetal bovine serum, 2 mM L-glutamine, 1% penicillin/streptomycin in the presence of G-CSF (100 ng/ml). PBS, subclinical dose LPS (100 pg/ml), oxLDL (10 μg/ml) or 4-PBA (1 mM) was added to cell cultures. After 2 days, the cells were harvested and stained with anti-Ly6G (BioLegend, #127606, 127610 or 127618, 1:200 dilution), anti-CD11b (BioLegend, #101206, 1:200 dilution), anti-CD62L (BioLegend, #104407, 1:200 dilution), anti-Dectin1 (BioLegend, #144305, 1:200 dilution), anti-LLRC32 (BioLegend, #142904, 1:200 dilution) and anti-FPN (Novus, #NBP1-21502, 1:200 dilution) antibodies. In some experiments, the cells were fixed and permeabilized using transcription factor phospho buffer set (BD Biosciences), and then stained with primary anti-p-STAT1 (Cell Signaling, #8009S, 1:50 dilution), anti-ATF4 (Proteintech, #10835-1-AP, 1:50 dilution), and anti-KLF2 (Novus, #NBP2-61812, 1:100 dilution) antibodies followed by staining with Alexa Fluor 488 conjugated goat anti-rabbit IgG (Abcam, #ab150077, 1:2000 dilution). Surface phenotype and transcription factor phosphorylation of Ly6G+ neutrophils were analyzed by FACSCanto II (BD Biosciences). For intracellular ROS detection, 5 μM CellROX Green Reagent (ThermoFisher) was added to neutrophil cultures 30 min before harvesting, and cells were analyzed by FACSCanto II (BD Biosciences). The data were processed by Flow Jo (Tree Star).

BM neutrophils [2] = assay: Lysosome-peroxisome fusion by confocal microscopy; type: cell-based, C57 BL/6 mice; conditions: LPS 100 pg/ml, 2 d, vs PBS
Protocol: Confocal Microscopy. Purified BM neutrophils were cultured in complete RPMI medium with G-CSF (100 ng/ml) in the presence of PBS, subclinical dose LPS (100 pg/ml), or 4-PBA (1 mM) for 2 d. To determine lysosome-peroxisome fusion, the cells were fixed with 4% PFA, deposited on slides through cytospin, and permeabilized with 0.2% Trinton X-100. The cells were blocked and stained with primary rabbit anti-mouse PMP70 antibody (1:1000) supplied in SelectFX® Alexa Fluor® 488 Peroxisome Labeling Kit (ThermoFisher, #S34201), followed by staining with Alexa Fluor 488-goat anti-rabbit secondary antibody (1:1000) supplied in the kit. After extensive washing with PBS, the cells were then stained with Cy3-anti-LAMP1 antibody (Abcam, #Ab67283, 1:1000) and observed under a confocal microscope.

BM neutrophils [3] = assay: ELISA of MMP9, LTB4, MPO in neutrophil culture supernatant; type: cell-based, C57 BL/6 mice; conditions: LPS 100 pg/ml with G-CSF, vs G-CSF alone
Protocol: (§2) ELISA and determination of plasma lipids. For in vivo analyses, plasma was collected from the mice at time of sacrificing. For in vitro analyses, purified BM neutrophils were cultured in complete RPMI medium with G-CSF (100 ng/ml) in the presence of PBS, subclinical dose LPS (100 pg/ml), oxLDL (10 μg/ml) or 4-PBA (1 mM), and supernatant was collected after 2 d. ELISA kit of MPO was purchased from ThermoFisher, and ELISA kits of MMP9, LTB4 and TGF-β1 were purchased from R&D Systems. Cholesterol quantitation kit was purchased from Sigma-Aldrich, and triglyceride quantification kit was purchased from BioVision.

Ly6G+ neutrophils = assay: Analyses of neutrophil phenotype in vivo by flow cytometry; design: species or system mice
Protocol: (§3) Experimental animals and LPS injection. Male ApoE−/− mice (6 to 8-week old) on the C57 BL/6 background were purchased from the Jackson Laboratory and fed with regular diet or High Fat Diet. Either PBS or subclinical dose LPS (5 ng per kg body weight) was intraperitoneally injected every 3 days for 1 month. Then, the mice were sacrificed and tissues were harvested for further analyses. All animal procedures were in accordance with the US National Institutes of Health Guide for the Care and Use of Laboratory Animals and approved by the Intuitional Animal Care and Use Committee of Virginia Tech.
Analyses of neutrophil phenotype in vivo. Peripheral blood cells, bone marrow (BM) cells and splenocytes were harvested from the mice treated as described above. Cells were stained with anti-Ly6G (BioLegend, #127618, 1:200 dilution), anti-CD11b (BioLegend, #101206, 1:200 dilution), anti-CD62L (BioLegend, #104407, 1:200 dilution), anti-Dectin1 (BioLegend, #144305, 1:200 dilution), anti-LLRC32 (BioLegend, #142904, 1:200 dilution) and anti-FPN (Novus, #NBP1-21502, 1:200 dilution) antibodies. The surface phenotype of Ly6G+ neutrophils was analyzed by FACSCanto II (BD Biosciences). The data were processed by Flow Jo (Tree Star).

ApoE−/− mice = assay: Subclinical low dose LPS injection in ApoE−/− mice: atherosclerotic lesions, circulating mediators; type: in vivo; conditions: for lesional oxCAMKII levels: low dose LPS vs PBS
Protocol: as §3
Analyses of atherosclerotic lesions. Histological analyses were performed on fresh-frozen and optimal cutting temperature (OCT) compound-embedded proximal aortic sections ([…]). Slides were fixed in 4% neutral buffered formalin for 5 min, followed by H&E or Oil Red O staining. Collagen staining was performed using the Picrosirius Red Stain Kit (Poly-Sciences) according to the manufacturer's instructions. The samples were observed under a light microscope. The percentages of total lesion area, lipid deposition, and collagen composition were calculated. For immunofluorescence staining, proximal aortic sections were fixed with 4% neutral buffered formalin for 5 min, permeabilized with 0.1% saponins, and blocked with 10% normal goat serum (Jackson ImmunoResearch) for 1 hour. To detect lesional neutrophils, the samples were stained with Alexa Fluor 647-conjugated anti-Ly6G antibody (1:50 dilution; BioLegend, no. 127610). To detect lesional macrophages, the samples were costained with eFluor 660-conjugated anti-CD68 (1:100 dilution; Thermo Fisher Scientific, no. 50-0681-82) and rabbit anti-SR-A (1:100 dilution; Thermo Fisher Scientific, no. PA5-22956) antibodies, followed by staining with DyLight 488-conjugated goat anti-rabbit immunoglobulin G (IgG) (1:100 dilution; Thermo Fisher Scientific, no. 35552) in the dark at room tem-perature for 1 hour. To detect oxCAMKII levels, the samples were stained with rabbit anti-oxCaMKII antibody (1:100 dilution; Millipore, no. 07-1387) at 4° C. overnight and then with DyLight 488-conjugated goat anti-rabbit IgG (1:100 dilution; Thermo Fisher Scientific, no. 35552) in the dark at room temperature for 1 hour. 4′,6-Diamidino-2-phenylindole was used to stain nucleus. The samples were observed under a confocal microscope.
as §2

[4] = test system: p-STAT1, ATF4, KLF2 in BM neutrophils; assay: p-STAT1, ATF4 and KLF2 levels in neutrophils by flow cytometry; type: cell-based, C57 BL/6 mice; conditions: LPS 100 pg/ml, vs PBS
Protocol: as §1

BM neutrophils [5] = assay: Intracellular ROS detection with CellROX; type: cell-based, C57 BL/6 mice; conditions: LPS 100 pg/ml, vs PBS
Protocol: as §1, with “In some experiments, the cells were fixed and permeabilized using transcription factor phospho buffer set (BD Biosciences), and then stained with primary anti-p-STAT1 (Cell Signaling, #8009S, 1:50 dilution), anti-ATF4 (Proteintech, #10835-1-AP, 1:50 dilution), and anti-KLF2 (Novus, #NBP2-61812, 1:100 dilution) antibodies followed by staining with Alexa Fluor 488 conjugated goat anti-rabbit IgG (Abcam, #ab150077, 1:2000 dilution).” left out, “The data were processed by Flow Jo (Tree Star).” left out

[6] = test system: oxCaMKII and 5-LOX in BM neutrophils; assay: Immunoblotting of oxCaMKII and 5-LOX in neutrophils; type: cell-based, C57 BL/6 mice; conditions: LPS 100 pg/ml, vs PBS
Protocol: Immunoblotting. Purified BM neutrophils were cultured in complete RPMI medium with G-CSF (100 ng/ml) in the presence of PBS, subclinical dose LPS (100 pg/ml), oxLDL (10 μg/ml) or 4-PBA (1 mM), and total cell lysate was extracted on day 2. Protein samples were separated with SDS-PAGE and transferred to PVDF membranes, which were probed with anti-oxCaMKII (Millipore, #07-1387, 1:500 dilution), anti-5 LOX (Cell Signaling, #3289S, 1:500 dilution), and anti-β-actin (Santa Cruz, #sc-47778, 1:1000 dilution) primary antibodies followed by horseradish peroxidase-conjugated anti-rabbit IgG (Cell Signaling, #7074S, 1:1000 dilution) or anti-mouse IgG (Cell Signaling, #7076S, 1:1000 dilution) secondary antibodies. Images were developed by a chemiluminescence ECL detection kit (ThermoFisher).

BM neutrophils [7] = assay: Surface phenotype of neutrophils before transfer, polarization for 24 h; type: cell-based, mice; conditions: polarized for 24 hours, vs PBS
Protocol: Bone marrow neutrophils were purified and treated with PBS, super-low-dose LPS (100 pg/ml) or 4-PBA (1 mM) for 24 h (FIGS. 16A-16B) and 48 h (FIGS. 16C-16D). The cells were stained with Annexin-V and PI, and the viability (percentage of Annexin-V-/PI-population) was determined by flow cytometry. (FIG. 16E) Surface phenotype of neutrophils was analyzed by flow cytometry after polarization for 24 h. Data are representative of three independent experiments, and error bars represent means±S.E.M. *P<0.05, **P<0.01 and ***P<0.001 as compared with PBS group; one-way ANOVA. (n=5 for each group).
Adoptive transfer of in vitro neutrophils. Bone marrow (BM) cells were isolated from ApoE−/− mice and BM neutrophils (Ly6G+ population) were purified by FACS sorting with >99.5% purity. The cells were cultured in complete RPMI with G-CSF (100 ng/ml) in the presence of subclinical dose LPS (100 pg/ml) or 4-PBA (1 mM) for 24 h. Cells were washed three times with PBS and suspended in PBS for injection. HFD-fed ApoE−/− mice were transfused with 2×10^6 neutrophils in 200 μl PBS once weekly through intravenous injection for 4 weeks. One week after the last cell transfer, mice were sacrificed and tissues were harvested for subsequent analyses.

mice = mice repeatedly injected with 1.5 mg/kg LPS; cited from earlier work
BM neutrophils [8] = assay: Real-time RT-PCR of miR-24 and miR-126 in neutrophil cultures; type: cell-based, C57 BL/6 mice; conditions: LPS 100 pg/ml, 2 d, vs PBS
Protocol: Real-Time RT-PCR for detecting of miRNAs. For in vivo analyses, plasma was collected from the mice at time of sacrificing. Circulating miRNAs were isolated with miRNeasy Serum/Plasma kit (Qiagen). For in vitro analyses, purified BM neutrophils were cultured in complete RPMI medium with G-CSF (100 ng/ml) in the presence of PBS, subclinical dose LPS (100 pg/ml), or 4-PBA (1 mM), and miRNAs were isolated with miRNeasy mini kit (Qiagen) after 2 d. TaqMan miRNA Assay kits for detection of U6, miR-16, miR-24, and miR-126 were purchased from ThermoFisher. Real-time RT-PCR was performed following the manual. U6 expression was used as the internal control for miRNA expressions in neutrophil cultures, and miR-16 expression was used as the internal control for plasma miRNA expressions.

[9] = LPS-injected vs PBS-injected mice
[10] = LPS-injected vs PBS-injected mice, blood, spleen, bone marrow
[11] = HFD-fed ApoE−/− mice, LPS 5 ng/kg body weight for 4 weeks, vs PBS

With lipopolysaccharide [LPS] the “surface CD11b” value [1] was “Significantly elevated levels”, the “surface CD62L” value [1] was “significantly reduced levels” and the “surface Dectin-1” value [1] was “Significantly elevated levels”. The “surface FPN” value [1] was “significantly reduced levels”, the “surface LRRC32” value [1] was “significantly reduced levels” and the “fusion between peroxisome and lysosome” value (BM neutrophils [2]) was “disruption of proper fusion”. For the same substance, the LTB4 in supernatant (BM neutrophils [3]) was “Significantly higher levels”, the MMP9 in supernatant (BM neutrophils [3]) was “Significantly higher levels” and the MPO in supernatant (BM neutrophils [3]) was “Significantly higher levels”. For the same substance, the “neutrophil surface level of FPN” value (Ly6G+ neutrophils; [9]) was “significantly reduced”, the “neutrophil surface level of LRRC32” value (Ly6G+ neutrophils; [9]) was “significantly reduced” and the “neutrophil surface CD11b” value (Ly6G+ neutrophils; [10]) was “significantly elevated”. For the same substance, the “neutrophil surface Dectin1” value (Ly6G+ neutrophils; [10]) was “significantly elevated”, the “neutrophil surface-attached CD62L” value (Ly6G+ neutrophils; [10]) was “significant reduction” and the “percentages of neutrophils in blood, spleens and atherosclerotic plaques” value (Ly6G+ neutrophils; mice chronically injected with LPS vs PBS) was “higher percentages”. The atherosclerotic plaque size (ApoE−/− mice; [11]) was “significantly larger”, the “circulating MPO” value (ApoE−/− mice; [11]) was “remarkable elevation” and the “circulating levels of TGFβ” value (ApoE−/− mice; [11]) was “significantly reduced”. For the same substance, the “collagen content within the plaque” value (ApoE−/− mice; [11]) was “significantly reduced”, the “plasma LTB4 level” value (ApoE−/− mice; [11]) was “significant elevation” and the “plasma MMP9 level” value (ApoE−/− mice; [11]) was “significant elevation”. The “lesional oxCAMKII levels” value (ApoE−/− mice; HFD-fed ApoE−/− mice) was “significantly elevated”, the “lesional oxCAMKII levels” value (ApoE−/− mice; RD-fed ApoE−/− mice) was “significantly elevated” and the “cellular level of ATF4” value [4] was “significantly reduced”. For the same substance, the “cellular level of KLF2” value [4] was “significantly reduced”, the p-STAT1 level [4] was “significantly elevated levels” and the “intracellular ROS level” value (BM neutrophils [5]) was “significantly higher levels”. For the same substance, the 5-LOX level [6] was “increased levels”, the oxCAMKII level [6] was “increased levels” and the CD11b expression (BM neutrophils [7]) was “elevated expressions”. The CD62L expression (BM neutrophils [7]) was “reduced expressions”, the Dectin-1 expression (BM neutrophils [7]) was “elevated expressions” and the FPN expression (BM neutrophils [7]) was “reduced expressions”. The LRRC32 expression (BM neutrophils [7]) was “reduced expressions”, the necrotic cores (mice) was “enlarged” and the “numbers of circulating neutrophils” value (mice) was “elevated numbers”. The plaque collagen content (mice) was “reduced”, the miR-24 expression (BM neutrophils [8]) was “induced” and the miR-126 expression (BM neutrophils [8]) was “potently suppressed”.
